Assay results taken from publication PMC4165461 (Analytical Chemistry, 2014).
*1 amine or outer side, *2 acyl side, *3 side chain or, on linkers, in order; H or OH if unused. Where a SMILES comes first, the peptide text is derived from it. CO = O=C([*:1])[*:2]

Biological target: cathepsin B (Homo sapiens, UniProt P07858)
Assay: Cathepsin B assay by droplet ESI-MS
Settings: 25 μM each

Row | result in the 24-compound pilot screen | Compound
1 | detected as inhibitors | CC(C)C[C@H](NC(=O)[C@H]1O[C@@H]1C(=O)O)C(=O)NCCCCN=C(N)N (relative stereo) [E-64, L-trans-3-carboxyoxiran-2-carbonyl-L-leucylagmatine]
2 | detected as inhibitors | CC(C)[C@H](NC(=O)[C@H](CCCNC(=N)N)NC(=O)N[C@@H](Cc1ccccc1)C(=O)O)C(=O)N[C@H](C=O)CCCNC(=N)N [antipain, [(S)-1-carboxy-2-phenylethyl]carbamoyl-L-arginyl-L-valyl-argininal] ({Phe-CO}-Arg-Val-Arg-aldehyde)
3 | detected as inhibitors | CC(C)C[C@H](NC(=O)[C@@H](NC(=O)N[C@@H](Cc1ccccc1)C(=O)O)[C@@H]1CCN=C(N)N1)C(=O)N[C@H](C=O)Cc1ccccc1 [chymostatin, N-(Nα-carbonyl-[S,S]-α-(2-iminohexahydro-4-pyrimidyl)glycine-X-Phe-al)-Phe, X = Leu, Val, or Ile]
4 | detected as inhibitors | CC(=O)N[C@@H](CC(C)C)C(=O)N[C@@H](CC(C)C)C(=O)N[C@H](C=O)CCCNC(=N)N [leupeptin, N-acetyl-L-leucyl-L-leucyl-L-argininal]

Same assay, conditions: read-out: reduction of reaction yield in the primary screen

Row | inhibition at 25 µM [%] | Compound
5 | ≥ 40 | O=c1cc(-c2ccc(O)c(O)c2)oc2cc(O)cc(O)c12 [Luteolin, luteolin]
6 | ≥ 40 | O=C1c2c(O)cccc2Cc2cccc(O)c21 [anthralin]
7 | ≥ 40 | CC(=O)Oc1cccc2c1C(=O)c1c(OC(C)=O)cc(C(=O)O)cc1C2=O [diacerein]
8 | ≥ 40 | O=C(c1ccc(OCCN2CCCCC2)cc1)c1c(-c2ccc(O)cc2)sc2cc(O)ccc12 [raloxifene]

More lines, now with the values behind:

Row | Compound | inhibition at 25 µM [%]
9 | [H]/N=C(\N/C(=N/[H])NCCCCCCNC(=N)NC(=N)Nc1ccc(Cl)cc1)Nc1ccc(Cl)cc1 [Chlorhexidine, chlorhexidine] | ≥ 40
10 | CSc1nc2cc(Cl)c(Oc3cccc(Cl)c3Cl)cc2[nH]1 [Triclabendazole, triclabendazole] | ≥ 40
11 | CCN(CC)C(=S)SSC(=S)N(CC)CC [disulfiram] | ≥ 40
12 | C=C(CC)C(=O)c1ccc(OCC(=O)O)c(Cl)c1Cl [ethacrynic acid] | ≥ 40
13 | Oc1c(Cl)cc(Cl)c(Cl)c1Cc1c(O)c(Cl)cc(Cl)c1Cl [hexachlorophene] | ≥ 40
14 | Oc1cc(Cl)ccc1Oc1ccc(Cl)cc1Cl [triclosan] | ≥ 40

System: CC(C)[C@H](NC(=O)[C@H](Cc1ccccc1)NC(=O)CNC(=O)[C@H](Cc1ccccc1)NC(=O)CN)C(=O)NCC(=O)NCC(=O)O
Assay: purified protein, by the assay type
Settings: other: substrate 0 to 400 μM, 50 nM cathepsin B; 37.0 °C

Row | Compound | Km [µM]
15 | cathepsin B (Homo sapiens) | 270 ± 34
